Data from patent US9593062B2, “Means and methods for treating and/or preventing natural AHR ligand-dependent cancer” (priority 2011, dated 2017).
Read-outs that look alike come from different tables or passages of the source.

How the values were obtained:
AHR [1] = target: T1, AHR (Homo sapiens, UniProt P35869); test: Inhibition of ligand-induced AHR activation and AHR-regulated gene expression by an AHR antagonist; format: cell-based; design: Malignant glioma cell lines as well as GIC express the AHR constitutively; endogenous in cells
T1 sequence (P35869 11-848): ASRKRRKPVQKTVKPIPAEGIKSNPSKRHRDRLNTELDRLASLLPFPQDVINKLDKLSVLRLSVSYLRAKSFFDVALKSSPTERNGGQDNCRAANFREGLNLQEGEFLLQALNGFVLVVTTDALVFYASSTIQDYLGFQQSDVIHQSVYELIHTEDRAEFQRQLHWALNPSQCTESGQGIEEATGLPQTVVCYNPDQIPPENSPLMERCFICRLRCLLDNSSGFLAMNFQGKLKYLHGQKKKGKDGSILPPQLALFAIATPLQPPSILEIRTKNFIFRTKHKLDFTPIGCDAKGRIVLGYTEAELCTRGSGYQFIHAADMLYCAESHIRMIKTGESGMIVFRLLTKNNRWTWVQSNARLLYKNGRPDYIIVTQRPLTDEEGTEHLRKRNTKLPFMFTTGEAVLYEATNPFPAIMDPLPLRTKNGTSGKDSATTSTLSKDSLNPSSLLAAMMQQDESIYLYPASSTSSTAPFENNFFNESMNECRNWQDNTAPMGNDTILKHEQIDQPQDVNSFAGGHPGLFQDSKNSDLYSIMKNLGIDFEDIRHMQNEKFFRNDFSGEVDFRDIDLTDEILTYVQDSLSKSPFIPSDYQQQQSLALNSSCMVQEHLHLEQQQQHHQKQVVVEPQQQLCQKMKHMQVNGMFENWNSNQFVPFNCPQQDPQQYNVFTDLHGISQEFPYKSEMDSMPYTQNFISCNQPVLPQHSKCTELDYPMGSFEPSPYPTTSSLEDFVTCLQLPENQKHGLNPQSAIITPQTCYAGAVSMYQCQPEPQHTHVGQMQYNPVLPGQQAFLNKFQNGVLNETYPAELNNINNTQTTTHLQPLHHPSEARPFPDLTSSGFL
Description: TDO expression was analysed by immunohistochemistry in human tumors. Its relevance for Trp degradation was determined using genetic knockdown or overexpression of TDO. Trp and Kyn were measured in cell culture supernatants, human sera and xenograft tissue by HPLC. Mixed leukocyte reactions, chromium release, ELISpot and staining of immune cells in tumor tissues were used to assess the immune effects of TDO activity. Cell cycle analysis, matrigel and spheroid invasion assays, scratch assays, sphere formation assays and clonogenicity assays were employed to analyse the autocrine effects of TDO activity. All animal procedures followed the institutional laboratory animal research guidelines and were approved by the governmental authorities. Orthotopic implantation of human glioma cells with and without stable knockdown of TDO into CD1nu/nu mice, s.c. injection of these cells into NK-depleted or wildtype CD1nu/nu mice and s.c. injection of murine Tdo-proficient and Tdo-deficient GL261 cells into syngeneic C57BL/6N mice were performed to analyse the autocrine and paracrine effects of TDO activity in vivo. Microarray analysis of Kyn-treated human glioma cells was performed to identify signalling pathways activated by Kyn. Analysis of AHR translocation, DRE-luciferase assays and radioligand binding assays confirmed activation of the AHR by Kyn. […]

AHR [2] = target: T1, AHR; test: ethoxyresorufin-O-deethylase (EROD) assay, induction of AHR target gene CYP1A1; format: cell-based
Excerpt: Such an inhibition may occur if the compound binds to an interaction domain of the AHR or its ligand binding domain and thereby inhibits the biological function of the AHR as specified elsewhere herein. Preferably, the inhibitor blocks the ligand binding domain for kynurenin, i.e. interacts with the ligand binding domain of the PAS-B domain or the ligand binding domain formed by Tyr310, Phe324, His326 and Arg352 (amino acid positions corresponding to human AHR). Alternatively, the compound may elicit an allosteric effect on the AHR polypeptide resulting in an inhibition of the biological function as well. An indirect inhibition can be elicited by a compound which reduces or prevents the transcription and/or translation of AHR polypetides and, thus, the amount of available AHR polypeptides in a cell. The AHR inhibitor shall at least reduce the AHR activity to a statistically significant extent. Of course, preferably, the inhibitor will reduce the AHR activity below the detectable limits. […] The activity of AHR can be detected by determining induction of the gene expression of its endogenous target gene CYP1A1 by an ethoxyresorufin-O-deethylase (EROD) assay.

AHR [3] = target: T2, AHR (Mus musculus, UniProt P30561); test: AHR nuclear translocation (GFP-tagged AHR, mouse hepatoma cells); format: cell-based; conditions: after 1 h; 50 μM Kyn
T2 construct: expressed in transfected cells; host or cells: Tao BpRc1c mouse hepatoma cells
T2 sequence (P30561 10-848): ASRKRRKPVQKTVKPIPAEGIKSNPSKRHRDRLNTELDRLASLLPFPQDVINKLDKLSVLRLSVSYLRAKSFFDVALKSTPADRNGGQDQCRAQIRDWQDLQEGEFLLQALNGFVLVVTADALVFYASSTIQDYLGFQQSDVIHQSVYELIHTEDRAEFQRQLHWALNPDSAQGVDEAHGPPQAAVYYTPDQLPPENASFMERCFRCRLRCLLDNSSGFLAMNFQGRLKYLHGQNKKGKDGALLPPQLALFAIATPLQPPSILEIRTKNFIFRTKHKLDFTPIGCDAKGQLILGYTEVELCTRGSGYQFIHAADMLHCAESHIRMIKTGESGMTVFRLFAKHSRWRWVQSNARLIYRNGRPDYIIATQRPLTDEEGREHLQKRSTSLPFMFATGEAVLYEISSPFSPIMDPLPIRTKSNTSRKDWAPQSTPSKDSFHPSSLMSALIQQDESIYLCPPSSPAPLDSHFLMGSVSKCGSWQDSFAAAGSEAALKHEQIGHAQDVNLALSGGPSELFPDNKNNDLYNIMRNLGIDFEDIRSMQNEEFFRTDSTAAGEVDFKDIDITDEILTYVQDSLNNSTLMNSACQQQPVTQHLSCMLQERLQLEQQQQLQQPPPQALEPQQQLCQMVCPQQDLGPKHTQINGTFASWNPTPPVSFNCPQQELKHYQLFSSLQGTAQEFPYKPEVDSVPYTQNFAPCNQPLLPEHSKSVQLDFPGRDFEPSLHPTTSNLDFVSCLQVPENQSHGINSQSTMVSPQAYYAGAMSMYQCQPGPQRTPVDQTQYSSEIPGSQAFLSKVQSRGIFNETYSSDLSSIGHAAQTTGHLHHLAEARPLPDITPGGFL
Description: For detection of AHR translocation 7000 Tao BpRc1c cells with a GFP-tagged AHR per well were exposed to 50 μM Kyn or 50 μM Trp, fixed in 3.7% formaldehyde in PBS, permeabilised in 0.1% Triton X100, incubated with 1 μg/ml Hoechst 33342 (Invitrogen) and imaged on a BD Pathway™ Imager 855 in a non-confocal mode using a 20× U-Apo 340 objective (Olympus, NA 0.75). Further analysis of fluorescence intensity was performed using the Attovision software (BD Biosciences). In addition, the AHR protein content in the nuclear and the cytoplasmic fractions of LN-229 glioma cells was compared by immunoblotting.

T cells = test: T cell proliferation (mixed leukocyte reaction, TCR-stimulated T cells); format: cell-based, human
Description: Glioma cells were seeded in 96-well plates in RPMI 1640 containing 10% FBS, 100 U/ml penicillin and 100 μg/ml streptomycin. 24 h after seeding […] irradiated (30 Gy) PBMC as stimulators and 2×10^5 PBMC from unrelated donors as responders were added. Six-day MLR were performed and cultures were pulsed with [3H]-methylthymidine (PerkinElmer, Waltham, Mass., USA) for the last 18 h. Cells were harvested, and radionuclide uptake was measured by scintillation counting. Experiments were repeated with six unrelated PBMC donors.

glioma cells = test: Motility, clonogenic survival and sphere formation of glioma cells; format: cell-based, human
Description: Tumor weight was calculated using the equation: tumor weight (g)=(length (cm)×width (cm)2)×0.5. e, IFN-γ-release of T cells of mice bearing subcutaneous Tdo-expressing tumors (black bar) in comparison to T cells of mice bearing Tdo-deficient tumors (white bar) after restimulation with glioma lysates measured by ELISpot (n=3). f, Lysis of GL261 murine glioma cells by spleen cells of mice with Tdo-expressing GL261 tumors in comparison to those with a subcutaneous Tdo-deficient GL261 tumors measured by chromium release (n=4). g, Quantification of the migrated distances of sh-c (open squares) and sh-TDO (solid circles) cells into a collagen matrix (n=3, P=0.004, 0.0005 and 0.01 for 24, 48 and 72 h, respectively). h, Clonogenic survival of sh-c (white bar) and sh-TDO (black bar) U87 cells (n=3). i, Matrigel boyden chamber assay of U87 glioma cells in the absence or presence of 70 μM Trp without or with 30 μM or 60 μM Kyn (n=3). j, Clonogenic survival of LN-18 glioma cells in the absence or presence of 70 μM Trp without or with 30 μM or 60 μM Kyn (n=3). k, Representative cranial MRIs, H&E and nestin stainings of CD1 nu/nu mice implanted with sh-c (upper panel) or sh-TDO (lower panel) U87 glioma cells. […]

AHR response genes = test: Microarray analysis of Kyn-treated U87 glioma cells; format: cell-based, human; conditions: U87, 100 μM Kyn, 8 h and 24 h
Description: U87 glioma cells were treated with 100 μM Kyn for 8 h or 24 h, after which the cells were harvested and RNA isolated using the RNAeasy-Kit (Qiagen). The RNA was subjected to microarray analyses as detailed in the Supplementary Methods. For each of the four treatments (8 h, 24 h, Kyn-treated, untreated) two arrays were hybridised and the mean log 2 ratios of gene expression in Kyn-treated vs. untreated samples were calculated. Further analyses of the data are detailed in the Supplementary Methods. For clinical samples microarray and clinical data were acquired from the REpository for Molecular BRAin Neoplasia DaTa (REMBRANDT) (Supplementary Methods). Survival analysis within the data set of untreated primary glioblastoma (n=362) of The Cancer Genome Atlas (TCGA) network was performed using the Kaplan-Meier-analysis module of the R2 microarray analysis and visualisation platform (http://r2.amc.nl).

AHR [4] = target: T1, AHR
Description: Dual luciferase/renilla assays were performed as detailed in the Supplementary Methods. For analysis of DRE-driven reporter gene activity in response to various Trp metabolites, the pGL3-promotor expression plasmid and the control plasmid pRL-SV40, expressing renilla luciferase were used (Promega, Heidelberg, Germany).

AHR [5] = target: T3, AHR (Mus musculus, UniProt P30561)
T3 sequence (P30561 1-848): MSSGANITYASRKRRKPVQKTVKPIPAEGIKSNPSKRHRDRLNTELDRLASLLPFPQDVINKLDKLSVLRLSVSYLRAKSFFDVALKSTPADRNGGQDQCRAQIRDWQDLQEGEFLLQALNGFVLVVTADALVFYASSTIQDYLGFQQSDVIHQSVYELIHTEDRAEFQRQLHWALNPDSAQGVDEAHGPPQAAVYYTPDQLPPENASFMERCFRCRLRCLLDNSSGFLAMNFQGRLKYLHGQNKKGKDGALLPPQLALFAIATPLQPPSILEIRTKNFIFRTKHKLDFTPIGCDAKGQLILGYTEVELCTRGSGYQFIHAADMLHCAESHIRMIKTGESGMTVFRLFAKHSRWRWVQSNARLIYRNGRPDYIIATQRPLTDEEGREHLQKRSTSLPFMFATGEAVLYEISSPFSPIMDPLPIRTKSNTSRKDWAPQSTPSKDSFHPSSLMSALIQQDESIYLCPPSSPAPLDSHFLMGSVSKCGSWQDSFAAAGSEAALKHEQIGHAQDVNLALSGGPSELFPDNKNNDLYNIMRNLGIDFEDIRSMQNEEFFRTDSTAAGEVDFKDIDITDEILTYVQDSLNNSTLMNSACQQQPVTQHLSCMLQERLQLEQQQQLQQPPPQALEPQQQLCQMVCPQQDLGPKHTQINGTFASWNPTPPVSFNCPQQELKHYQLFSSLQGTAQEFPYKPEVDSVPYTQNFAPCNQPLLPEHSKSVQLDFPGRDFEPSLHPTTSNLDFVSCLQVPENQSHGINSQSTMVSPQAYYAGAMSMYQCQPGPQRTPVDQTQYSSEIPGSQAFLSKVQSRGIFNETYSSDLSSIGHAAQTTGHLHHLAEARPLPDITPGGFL
Description: The data distribution is represented by box plots, showing the 25th and 75th percentile together with the median, whiskers represent the 10th and 90th percentile, respectively (P<0.001, one way ANOVA on ranks, followed by Dunns' method). d, AHR Western blots of two different nuclear and cytoplasmic fractions each of control (1,2), Kyn-treated (3,4) and TCDD-treated (5,6) human LN-229 glioma cells. e, Dioxinresponsive element (DRE) chemical activated luciferase gene expression in U87 glioma cells treated with indicated Kyn concentrations (n=2). f, Radioligand binding assay with indicated concentrations of L-3H-Kyn using mouse liver cytosol from Ahr-proficient and Ahr-deficient mice.
L-3H-Kyn with a specific activity of 11 Ci/mmol was obtained from Quotient Bioresearch (Radiochemicals) Ltd. (Cardiff, UK). The binding assays with L-3H-Kyn using mouse liver cytosol from Ahr-proficient and Ahr-deficient mice were performed. Specific binding was defined as the difference of radioactivity between Ahr-proficient and Ahr-deficient cytosol.

Row | Compound | Activation of the AHR and upregulation of AHR-regulated gene expression in response to Kyn (AHR [1]; agonist Kyn) | Activation of the AHR by Kyn, TCDD and 3-MC (AHR [1]; three ligands: Kyn, TCDD, 3-methylcholanthrene) | EC50 (AHR [2]) [µM] | Translocation of the AHR into the nucleus (AHR [3]) | Proliferation of T cell receptor-stimulated CD4+ and CD8+ T cells (T cells) | Allogeneic T cell proliferation with TDO knockdown glioma cells (T cells; 100 μM Kyn added to sh-TDO U87 cells (FIG. 2b)) | Motility and clonogenic survival of glioma cells (glioma cells; absence of Trp, 30 or 60 μM Kyn (FIG. 2i,j)) | Sphere formation of GIC (glioma cells; glioma-initiating cells) | Induction of AHR response genes (AHR response genes) | EC50 (AHR [4]) [µM] | Kd (AHR [5]) [µM]
1 | COc1ccc(-c2cc(=O)c3ccccc3o2)cc1OC [3,4-DMF, 3,4-dimethoxylflavone] | inhibited | inhibited the activation of the AHR by all three ligands | – | – | – | – | – | – | – | – | –
2 | Kynurenin | – | – | 12.3 | led to translocation of the AHR into the nucleus | concentration-dependently inhibited | prevented the restoration of T cell proliferation | restored motility and clonogenic survival | enhanced | broad induction of AHR response genes | 36.6 | ~4
